Measurements: PubChem BioAssay (NCI)
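Where inhibition never reached the appropriate level, the endpoint shown equals the highest concentration tested. Otherwise, values were interpolated linearly from a five-concentration, 48-hour dose response in 96-well plates. At the TGI there is no net growth.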

Tests used:
Assay in all cases: NCI tumour cell line growth inhibition, 48 h
786-0 renal = test system: 786-0 renal
A498 renal = test system: A498 renal
A549 NSCLC = test system: A549 NSCLC
ACHN renal = test system: ACHN renal
CAKI-1 renal = test system: CAKI-1 renal
CCRF-CEM leukemia = test system: CCRF-CEM leukemia
COLO 205 colon = test system: COLO 205 colon
DU-145 prostate = test system: DU-145 prostate
EKVX NSCLC = test system: EKVX NSCLC
HCC-2998 colon = test system: HCC-2998 colon
HCT-116 colon = test system: HCT-116 colon
HCT-15 colon = test system: HCT-15 colon
HL-60(TB) leukemia = test system: HL-60(TB) leukemia
HOP-62 NSCLC = test system: HOP-62 NSCLC
HOP-92 NSCLC = test system: HOP-92 NSCLC
HS 578T breast = test system: HS 578T breast
HT29 colon = test system: HT29 colon
IGROV1 ovarian = test system: IGROV1 ovarian
K-562 leukemia = test system: K-562 leukemia
KM12 colon = test system: KM12 colon
LOX IMVI melanoma = test system: LOX IMVI melanoma
M14 melanoma = test system: M14 melanoma
MALME-3M melanoma = test system: MALME-3M melanoma
MCF7 breast = test system: MCF7 breast
MDA-MB-231 breast = test system: MDA-MB-231 breast
MDA-MB-435 = test system: MDA-MB-435
MDA-N = test system: MDA-N
MOLT-4 leukemia = test system: MOLT-4 leukemia
NCI-H226 lung = test system: NCI-H226 lung
NCI-H23 lung = test system: NCI-H23 lung
NCI-H460 lung = test system: NCI-H460 lung
NCI-H522 lung = test system: NCI-H522 lung
NCI/ADR-RES ovarian = test system: NCI/ADR-RES ovarian
OVCAR-3 ovarian = test system: OVCAR-3 ovarian
OVCAR-4 ovarian = test system: OVCAR-4 ovarian
OVCAR-5 ovarian = test system: OVCAR-5 ovarian
OVCAR-8 ovarian = test system: OVCAR-8 ovarian
PC-3 prostate = test system: PC-3 prostate
RPMI-8226 leukemia = test system: RPMI-8226 leukemia
RXF 393 renal = test system: RXF 393 renal
SF-268 CNS = test system: SF-268 CNS
SF-295 CNS = test system: SF-295 CNS
SF-539 CNS = test system: SF-539 CNS
SK-MEL-2 melanoma = test system: SK-MEL-2 melanoma
SK-MEL-28 melanoma = test system: SK-MEL-28 melanoma
SK-MEL-5 melanoma = test system: SK-MEL-5 melanoma
SN12C renal = test system: SN12C renal
SNB-19 CNS = test system: SNB-19 CNS
SNB-75 CNS = test system: SNB-75 CNS
SW-620 colon = test system: SW-620 colon
T-47D breast = test system: T-47D breast
TK-10 renal = test system: TK-10 renal
U251 CNS = test system: U251 CNS
UACC-257 melanoma = test system: UACC-257 melanoma
UACC-62 melanoma = test system: UACC-62 melanoma
BT-549 breast = test system: BT-549 breast
SK-OV-3 ovarian = test system: SK-OV-3 ovarian
SR leukemia = test system: SR leukemia
UO-31 renal = test system: UO-31 renal

In the case of `COc1cc2c3c([nH]c2c(OC)c1OC)CCN(Cc1ccccc1)C3`, the TGI (786-0 renal) is reported as greater than 100 µM, the TGI (A498 renal) is reported as 72.3 µM and the TGI (A549 NSCLC) is reported as greater than 100 µM. It also gave a TGI (ACHN renal) greater than 100 µM, a TGI (CAKI-1 renal) greater than 100 µM and a TGI (CCRF-CEM leukemia) greater than 100 µM. The TGI (COLO 205 colon) was 32 µM, the TGI (DU-145 prostate) was greater than 100 µM and the TGI (EKVX NSCLC) was greater than 100 µM. For the same compound, the TGI (HCC-2998 colon) was 34.6 µM, the TGI (HCT-116 colon) was greater than 100 µM and the TGI (HCT-15 colon) was greater than 100 µM. For the same compound, the TGI (HL-60(TB) leukemia) was greater than 100 µM, the TGI (HOP-62 NSCLC) was greater than 100 µM and the TGI (HOP-92 NSCLC) was 41.5 µM. The TGI (HS 578T breast) was greater than 100 µM, the TGI (HT29 colon) was 49.9 µM and the TGI (IGROV1 ovarian) was greater than 100 µM. For the same compound, the TGI (K-562 leukemia) was 84.2 µM, the TGI (KM12 colon) was greater than 100 µM and the TGI (LOX IMVI melanoma) was 32.1 µM. For the same compound, the TGI (M14 melanoma) was 30 µM, the TGI (MALME-3M melanoma) was 38.1 µM and the TGI (MCF7 breast) was 41.8 µM. It also gave a TGI (MDA-MB-231 breast) greater than 100 µM, a TGI (MDA-MB-435) of 35 µM and a TGI (MDA-N) of 33.9 µM. It also gave a TGI (MOLT-4 leukemia) greater than 100 µM, a TGI (NCI-H226 lung) greater than 100 µM and a TGI (NCI-H23 lung) greater than 100 µM. For the same compound, the TGI (NCI-H460 lung) was 63.5 µM, the TGI (NCI-H522 lung) was greater than 100 µM and the TGI (NCI/ADR-RES ovarian) was greater than 100 µM. It also gave a TGI (OVCAR-3 ovarian) greater than 100 µM, a TGI (OVCAR-4 ovarian) greater than 100 µM and a TGI (OVCAR-5 ovarian) greater than 100 µM. For the same compound, the TGI (OVCAR-8 ovarian) was greater than 100 µM, the TGI (PC-3 prostate) was greater than 100 µM and the TGI (RPMI-8226 leukemia) was 52.5 µM. The TGI (RXF 393 renal) was greater than 100 µM, the TGI (SF-268 CNS) was greater than 100 µM and the TGI (SF-295 CNS) was greater than 100 µM. The TGI (SF-539 CNS) was 38.5 µM, the TGI (SK-MEL-2 melanoma) was 47.1 µM and the TGI (SK-MEL-28 melanoma) was 50.5 µM. For the same compound, the TGI (SK-MEL-5 melanoma) was 34.9 µM, the TGI (SN12C renal) was greater than 100 µM and the TGI (SNB-19 CNS) was greater than 100 µM. The TGI (SNB-75 CNS) was greater than 100 µM, the TGI (SW-620 colon) was greater than 100 µM and the TGI (T-47D breast) was 68.6 µM. For the same compound, the TGI (TK-10 renal) was 78.9 µM, the TGI (U251 CNS) was 87.4 µM and the TGI (UACC-257 melanoma) was 40 µM. For the same compound, the TGI (UACC-62 melanoma) was greater than 100 µM.
`CCCc1[nH]c2ccccc2c1-c1c(CCC)[nH]c2ccccc12` was tested, and the TGI (786-0 renal) was 31.4 µM, the TGI (A498 renal) was greater than 100 µM and the TGI (A549 NSCLC) was greater than 75.4 µM. The TGI (ACHN renal) was 31.7 µM, the TGI (BT-549 breast) was 35.6 µM and the TGI (CAKI-1 renal) was 38.5 µM. It also gave a TGI (CCRF-CEM leukemia) greater than 100 µM, a TGI (COLO 205 colon) of 37.1 µM and a TGI (DU-145 prostate) of 35 µM. For the same compound, the TGI (EKVX NSCLC) was 30.9 µM, the TGI (HCC-2998 colon) was 42.1 µM and the TGI (HCT-116 colon) was 15.2 µM. For the same compound, the TGI (HCT-15 colon) was 23.5 µM, the TGI (HOP-62 NSCLC) was 32.2 µM and the TGI (HOP-92 NSCLC) was 62.4 µM. For the same compound, the TGI (HS 578T breast) was 50.5 µM, the TGI (HT29 colon) was 22.2 µM and the TGI (IGROV1 ovarian) was 32.4 µM. For the same compound, the TGI (K-562 leukemia) was greater than 100 µM, the TGI (KM12 colon) was greater than 61.2 µM and the TGI (LOX IMVI melanoma) was 17.3 µM. The TGI (M14 melanoma) was 27.9 µM, the TGI (MALME-3M melanoma) was 32.7 µM and the TGI (MCF7 breast) was 29.9 µM. The TGI (MDA-MB-231 breast) was 38.6 µM, the TGI (MDA-MB-435) was greater than 63.7 µM and the TGI (MDA-N) was 24.4 µM. It also gave a TGI (MOLT-4 leukemia) greater than 100 µM, a TGI (NCI-H226 lung) of 39.1 µM and a TGI (NCI-H23 lung) of 26.8 µM. For the same compound, the TGI (NCI-H460 lung) was 59.7 µM, the TGI (NCI-H522 lung) was 34.2 µM and the TGI (NCI/ADR-RES ovarian) was 51.8 µM. It also gave a TGI (OVCAR-3 ovarian) of 21.4 µM, a TGI (OVCAR-4 ovarian) greater than 68.2 µM and a TGI (OVCAR-5 ovarian) of 33.6 µM. For the same compound, the TGI (OVCAR-8 ovarian) was 11.2 µM, the TGI (PC-3 prostate) was 23.4 µM and the TGI (RPMI-8226 leukemia) was greater than 100 µM. The TGI (RXF 393 renal) was 37.6 µM, the TGI (SF-268 CNS) was 28.3 µM and the TGI (SF-295 CNS) was 32.8 µM. For the same compound, the TGI (SF-539 CNS) was 36.1 µM, the TGI (SK-MEL-2 melanoma) was 35.7 µM and the TGI (SK-MEL-28 melanoma) was 21.6 µM. It also gave a TGI (SK-MEL-5 melanoma) of 23.7 µM, a TGI (SK-OV-3 ovarian) of 65.5 µM and a TGI (SN12C renal) of 23.2 µM. It also gave a TGI (SNB-19 CNS) of 29.3 µM, a TGI (SNB-75 CNS) of 39.7 µM and a TGI (SR leukemia) greater than 100 µM. It also gave a TGI (SW-620 colon) of 23.7 µM, a TGI (TK-10 renal) of 50.9 µM and a TGI (U251 CNS) of 21.9 µM. It also gave a TGI (UACC-257 melanoma) of 43.9 µM, a TGI (UACC-62 melanoma) of 34.8 µM and a TGI (UO-31 renal) of 34.7 µM.
